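Compound exposure: 48 hours, 5 concentrations, 96-well plates. The concentration for 50% growth inhibition is given as GI50.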 Activity calls are given as the source filed them. Rule as the data show it: active = GI50 up to about 1.1 µM and inactive = higher. Square brackets hold non-standard residues; d marks the D form. Peptide text beside a SMILES is read from it. * marks the point of attachment. ξ: configuration not given here. NMeN = CN[C@@H](CC(N)=O)C(=O)O; NMeV = CN[C@H](C(=O)O)C(C)C; ξNMeV = CNC(C(=O)O)C(C)C; Boc = CC(C)(C)OC(=O)*; ξNMeA = CNC(C)C(=O)O
Tests used:
Assay in all cases: NCI tumour cell line growth inhibition, 48 h
DLD-1 = system: DLD-1
DMS-114 = system: DMS-114
HOP-18 = system: HOP-18
KM-20L2 = system: KM-20L2
M19-MEL = system: M19-MEL
RXF 631 = system: RXF 631
SNB-78 = system: SNB-78
XF498 = system: XF498
LXFL 529 = system: LXFL 529

Structure (SMILES) | GI50 (DLD-1) | GI50 (DMS-114) | GI50 (HOP-18) | GI50 (KM-20L2) | GI50 (M19-MEL) | GI50 (RXF 631) | GI50 (SNB-78) | GI50 (XF498) | GI50 (LXFL 529)
COC(=O)C1=C(C)N(NC(N)=O)C2(N)N(NC(N)=O)C(C)=C(C(=O)OC)C12C#N (stereo not given) | > 100 µM (inactive) | > 100 µM (inactive) | > 100 µM (inactive) | > 100 µM (inactive) | > 100 µM (inactive) | > 100 µM (inactive) | > 100 µM (inactive) | > 100 µM (inactive) | –
O=C1C2Cc3ccccc3CN2C(=O)N1CN1CCN(CN2C(=O)C3Cc4ccccc4CN3C2=O)CC1 (stereo not given) | > 100 µM (inactive) | > 100 µM (inactive) | > 100 µM (inactive) | > 100 µM (inactive) | > 100 µM (inactive) | > 100 µM (inactive) | > 100 µM (inactive) | – | –
O=C1C=C(Nc2ccccc2C(=O)CC(=O)C(=O)Nc2ccc(Cl)c(Cl)c2)c2ccccc2C1=O | 19.7 µM (inactive) | 18.2 µM (inactive) | – | – | 3.98 µM (inactive) | – | 5.31 µM (inactive) | – | –
CCOC(=O)C1=C(C)N(NC(=O)c2ccccc2)C2(O)CCCC12C(=O)OCC (stereo not given) | – | > 100 µM (inactive) | – | > 100 µM (inactive) | > 100 µM (inactive) | > 100 µM (inactive) | – | 55 µM (inactive) | > 100 µM (inactive)
COc1cc(/C=C2\CCC(C)(CN(C)C)C2=O)cc(OC)c1OC (stereo not given) | > 89.1 µM (inactive) | 99.5 µM (inactive) | > 100 µM (inactive) | > 64.9 µM (inactive) | > 100 µM (inactive) | – | > 44.7 µM (inactive) | > 100 µM (inactive) | > 100 µM (inactive)
CCCCCCCCCCCCCCCC(=O)OCC1OC(OC)C2NP(=O)(N(CCCl)CCCl)OC1C2O (stereo not given) | 2.7 µM (inactive) | 1.54 µM (inactive) | 8.53 µM (inactive) | 15.8 µM (inactive) | 15.6 µM (inactive) | 6.89 µM (inactive) | 3.3 µM (inactive) | 2.31 µM (inactive) | 2.43 µM (inactive)
N#Cc1cccc(/C=N/C23CC4CC(CC(C4)C2)C3)c1 | – | > 100 µM (inactive) | – | > 100 µM (inactive) | > 100 µM (inactive) | – | > 100 µM (inactive) | – | –
C1CCN(C2OC3C(COC3N3CCCCC3)OC2OC2CCO[C@@H]2N2CCCCC2)CC1 (stereo not given in full) | 38.8 µM (inactive) | 14.3 µM (inactive) | – | > 100 µM (inactive) | – | – | 8.26 µM (inactive) | 15.8 µM (inactive) | 17.3 µM (inactive)
CN(C)C(=C1C(Br)=C(Br)C(Br)=C1Br)N(C)C | > 100 µM (inactive) | > 100 µM (inactive) | > 100 µM (inactive) | > 100 µM (inactive) | > 100 µM (inactive) | – | – | – | 75 µM (inactive)
COC1=CC23C=CC1[C@@H](c1ccccc1)C2=C(C)C(=O)N3C(=O)NC1CCCCC1 (stereo not given in full) | – | – | – | 22.2 µM (inactive) | – | – | 26.4 µM (inactive) | – | –
c1cc2c(cnc3cscc32)s1 | > 100 µM (inactive) | > 100 µM (inactive) | – | – | > 100 µM (inactive) | > 100 µM (inactive) | > 100 µM (inactive) | 11 µM (inactive) | –
CC1=NN(C(=O)Cc2ccccc2)C(=O)/C1=C\C=C\c1ccccc1 | > 100 µM (inactive) | – | 14.8 µM (inactive) | – | – | – | 83.6 µM (inactive) | > 100 µM (inactive) | –
CON1C(=O)C2(CCCCC2)C(=O)C12C=CC(C)CC2 (stereo not given) | – | 46.7 µM (inactive) | – | > 100 µM (inactive) | > 100 µM (inactive) | > 100 µM (inactive) | > 100 µM (inactive) | > 100 µM (inactive) | > 100 µM (inactive)
COC(=O)C1=C(c2ccc(OC)c(OC)c2)OC(c2cc(OC)c(OC)c(OC)c2)C1 (stereo not given) | 2.12 µM (inactive) | 37.6 µM (inactive) | 61.7 µM (inactive) | > 100 µM (inactive) | > 100 µM (inactive) | 94.2 µM (inactive) | 22.8 µM (inactive) | 24.5 µM (inactive) | 0.711 µM (active)
CC1(C)CCc2cc3c(cc2O1)OC(C)(C)C1c2c(ccc4c2CCC(C)(C)O4)OC31 (stereo not given) | > 100 µM (inactive) | 98.4 µM (inactive) | < 0.01 µM (active) | – | > 100 µM (inactive) | – | > 100 µM (inactive) | > 100 µM (inactive) | > 100 µM (inactive)
Cc1ccc(NS(=O)(=O)c2cc(C(C)(C)C)ccc2OCCOCCOCCOc2ccc(C(C)(C)C)cc2S(=O)(=O)Nc2ccc(C)cc2)cc1 | > 100 µM (inactive) | > 100 µM (inactive) | > 100 µM (inactive) | – | > 100 µM (inactive) | – | > 100 µM (inactive) | – | –

Structure (SMILES) | GI50 (DLD-1) | GI50 (DMS-114) | GI50 (HOP-18) | GI50 (KM-20L2) | GI50 (M19-MEL) | GI50 (RXF 631) | GI50 (SNB-78) | GI50 (XF498) | GI50 (LXFL 529)
CCCCCCCCCCCC(=O)OCC1OC(n2cc(F)c(=O)[nH]c2=O)C(N)C(O)C1O (stereo not given) | 71.8 µM (inactive) | > 100 µM (inactive) | 88.9 µM (inactive) | 91.4 µM (inactive) | > 100 µM (inactive) | – | > 100 µM (inactive) | – | > 100 µM (inactive)
CCOC(=O)C(NC(=O)c1nc[nH]c1/N=N/N(C)C)C(C)C (stereo not given) | > 100 µM (inactive) | > 100 µM (inactive) | – | – | > 100 µM (inactive) | – | – | – | > 100 µM (inactive)
Nc1ncnc2c1ncn2CC(O)CO (stereo not given) | > 100 µM (inactive) | > 100 µM (inactive) | > 100 µM (inactive) | – | > 100 µM (inactive) | > 100 µM (inactive) | > 100 µM (inactive) | – | > 100 µM (inactive)
Oc1cc(-c2c[nH]c3ccccc23)nc2cc3c(cc12)OCO3 | > 100 µM (inactive) | > 100 µM (inactive) | – | > 100 µM (inactive) | > 100 µM (inactive) | > 100 µM (inactive) | – | 41.6 µM (inactive) | > 100 µM (inactive)
COc1ccc2c([nH]c3c(O)c(-c4c(C)cc5c([nH]c6c(CC=C(C)C)c(OC)ccc65)c4O)c(C)cc32)c1CC=C(C)C [BISMURRAYAFOLINE B] | > 100 µM (inactive) | > 100 µM (inactive) | > 100 µM (inactive) | > 100 µM (inactive) | > 100 µM (inactive) | – | > 100 µM (inactive) | – | > 100 µM (inactive)
O=c1ccn(C2(CO)C=C(CO)C(O)C2O)c(=O)[nH]1 (stereo not given) | > 25.7 µM (inactive) | > 25.7 µM (inactive) | > 25.7 µM (inactive) | > 25.7 µM (inactive) | > 25.7 µM (inactive) | > 25.7 µM (inactive) | > 25.7 µM (inactive) | – | > 25.7 µM (inactive)
C1=CC=C2NCCOCC/N=C3/C=CC=CC=C3NCCOCC/N=C\2C=C1 | > 100 µM (inactive) | 46.6 µM (inactive) | > 100 µM (inactive) | 21.6 µM (inactive) | > 100 µM (inactive) | 30 µM (inactive) | > 100 µM (inactive) | – | 40.1 µM (inactive)
NC(=O)N/N=C(\C(=O)C(=O)Nc1ccc(Cl)c(C(F)(F)F)c1)c1nc2ccc(C(=O)c3ccccc3)cc2nc1O | – | 68.4 µM (inactive) | 23.7 µM (inactive) | > 100 µM (inactive) | > 100 µM (inactive) | – | 76.6 µM (inactive) | 9.62 µM (inactive) | –
C=C(CCCCCCCCC)CC(=O)SCCNC(=O)CCNC(=O)C(O)C(C)(C)COP(=O)(O)OP(=O)(O)OCC1OC(n2cnc3c(N)ncnc32)C(O)C1OP(=O)(O)O (stereo not given) | 42.9 µM (inactive) | 55.3 µM (inactive) | 29.4 µM (inactive) | > 100 µM (inactive) | 29.8 µM (inactive) | 55.2 µM (inactive) | 25.5 µM (inactive) | 50 µM (inactive) | 56.2 µM (inactive)
COC(=O)C(C)N(C)C(=O)[C@H](CC(N)=O)N(C)C(=O)[C@@H]1CCCN1C(=O)[C@H](C(C)C)N(C)C(=O)C(C(C)C)N(C)C(=O)[C@@H](NC(=O)OC(C)(C)C)C(C)C (stereo not given in full) (Boc-V[ξNMeV][NMeV]P[NMeN][ξNMeA]-OMe) | 37 µM (inactive) | – | > 100 µM (inactive) | > 100 µM (inactive) | > 100 µM (inactive) | – | > 100 µM (inactive) | > 100 µM (inactive) | > 100 µM (inactive)
S=c1nc2c(c[nH]1)C1c3ccccc3C2c2ccccc21 | – | 62.2 µM (inactive) | – | > 100 µM (inactive) | > 100 µM (inactive) | – | > 100 µM (inactive) | – | > 100 µM (inactive)
C/C(=N\N(C)C)C(CN1CCCCC1)C(c1ccccc1)c1c(O)c2ccccc2oc1=O (stereo not given) | > 100 µM (inactive) | > 100 µM (inactive) | > 100 µM (inactive) | > 100 µM (inactive) | > 100 µM (inactive) | > 100 µM (inactive) | > 100 µM (inactive) | 74.1 µM (inactive) | > 100 µM (inactive)
COc1cc(C(C)c2cc3c(cc2OCCCCOc2cc4c(cc2C(C)c2cc(OC)c(OC)c(OC)c2)OCO4)OCO3)cc(OC)c1OC (stereo not given) | 35.6 µM (inactive) | 15.9 µM (inactive) | – | > 100 µM (inactive) | 38.4 µM (inactive) | 39.7 µM (inactive) | 20.1 µM (inactive) | 27.6 µM (inactive) | 33.3 µM (inactive)
CC1CN(C(=O)CN2CCC(CCCCN(C)C)CC2)c2ccccc2NC1=O (stereo not given) | > 100 µM (inactive) | > 100 µM (inactive) | > 100 µM (inactive) | > 100 µM (inactive) | > 100 µM (inactive) | > 100 µM (inactive) | – | – | > 100 µM (inactive)
CC1CC(c2ccc([N+](=O)[O-])cc2)=Nc2ccccc2S1 (stereo not given) | 12.9 µM (inactive) | 17.4 µM (inactive) | > 100 µM (inactive) | 18.4 µM (inactive) | 13.8 µM (inactive) | – | 67.5 µM (inactive) | 31.6 µM (inactive) | 13.3 µM (inactive)

— ChEMBL document CHEMBL1201862, “PubChem BioAssay data set” (2004)
